# Reference: ChEMBL document CHEMBL1201862, “PubChem BioAssay data set” (2004)
# Active and inactive are the calls of the source.
# Key:
# [1] = test system: Escherichia coli; assay: microbe, parasite or virus in culture
# [2] = test system: Escherichia coli; assay: microbe, parasite or virus in culture; remark: listed apart in the source
# [3] = target: T1, Endoribonuclease toxin MazF (Escherichia coli K-12, UniProt P0AE70); assay: activation of MazEF endoribonuclease cleavage – biochemical, fluorescence, single-stranded RNA substrate, uHTS hits, dose response (AID 588481); format: functional
# T1 sequence (P0AE70 whole entry): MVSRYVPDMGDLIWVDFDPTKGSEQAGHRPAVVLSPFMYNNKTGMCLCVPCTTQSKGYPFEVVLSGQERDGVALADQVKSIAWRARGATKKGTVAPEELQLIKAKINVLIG
# [4] = target: T1, Endoribonuclease toxin MazF; assay: substrate-only fluorescence increase artefacts – biochemical, single-stranded RNase substrate, counter-screen for MazEF activator project, dose response (AID 588502); format: functional
# [5] = target: T2, High affinity choline transporter 1 (Homo sapiens, UniProt Q9GZV3); assay: human choline transporter blockers, potency – cell-based, 5-point CRC, membrane potential dye, dose response (AID 504840); format: functional
# T2 sequence (Q9GZV3 whole entry): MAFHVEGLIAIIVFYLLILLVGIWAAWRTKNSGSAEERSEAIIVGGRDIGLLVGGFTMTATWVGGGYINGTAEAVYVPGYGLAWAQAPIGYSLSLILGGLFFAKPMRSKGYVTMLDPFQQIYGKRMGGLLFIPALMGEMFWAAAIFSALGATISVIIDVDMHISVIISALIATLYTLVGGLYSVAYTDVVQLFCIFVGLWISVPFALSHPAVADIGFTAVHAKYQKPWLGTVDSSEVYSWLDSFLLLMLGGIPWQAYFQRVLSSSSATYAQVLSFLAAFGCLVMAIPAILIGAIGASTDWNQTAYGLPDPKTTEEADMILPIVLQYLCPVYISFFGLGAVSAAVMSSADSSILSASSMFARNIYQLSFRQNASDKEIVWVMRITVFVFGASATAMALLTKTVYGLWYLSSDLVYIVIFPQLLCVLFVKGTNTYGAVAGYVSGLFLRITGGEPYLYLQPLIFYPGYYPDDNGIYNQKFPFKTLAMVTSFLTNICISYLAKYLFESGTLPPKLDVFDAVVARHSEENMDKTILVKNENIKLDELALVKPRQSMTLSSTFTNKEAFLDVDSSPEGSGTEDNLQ
# [6] = target: T2, High affinity choline transporter 1; assay: human choline transporter blockers, potency – cell-based, 10-point CRC, membrane potential dye, dose response (AID 588401); format: functional;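 note: membrane potential dye fluorescence of choline-evoked depolarization via CHT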
# [7] = target: ALK tyrosine kinase receptor (Homo sapiens, UniProt Q9UM73); format: functional;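 note: ALK tested as one member of a kinase panel screen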
# [8] = target: Cyclin-dependent kinase 19 (Homo sapiens, UniProt Q9BWU1); assay: Navigating the Kinome. Panel member name: CDC2L6; format: functional
# [9] = target: T3, Short transient receptor potential channel 4 (Mus musculus, UniProt Q9QUQ5); assay: calcium entry via TRPC4 opening agents – cell-based, HEK293 TRPC4/mu-opioid, Fluo-4 calcium, dose response (AID 434937); format: functional
# T3 sequence (Q9QUQ5 whole entry): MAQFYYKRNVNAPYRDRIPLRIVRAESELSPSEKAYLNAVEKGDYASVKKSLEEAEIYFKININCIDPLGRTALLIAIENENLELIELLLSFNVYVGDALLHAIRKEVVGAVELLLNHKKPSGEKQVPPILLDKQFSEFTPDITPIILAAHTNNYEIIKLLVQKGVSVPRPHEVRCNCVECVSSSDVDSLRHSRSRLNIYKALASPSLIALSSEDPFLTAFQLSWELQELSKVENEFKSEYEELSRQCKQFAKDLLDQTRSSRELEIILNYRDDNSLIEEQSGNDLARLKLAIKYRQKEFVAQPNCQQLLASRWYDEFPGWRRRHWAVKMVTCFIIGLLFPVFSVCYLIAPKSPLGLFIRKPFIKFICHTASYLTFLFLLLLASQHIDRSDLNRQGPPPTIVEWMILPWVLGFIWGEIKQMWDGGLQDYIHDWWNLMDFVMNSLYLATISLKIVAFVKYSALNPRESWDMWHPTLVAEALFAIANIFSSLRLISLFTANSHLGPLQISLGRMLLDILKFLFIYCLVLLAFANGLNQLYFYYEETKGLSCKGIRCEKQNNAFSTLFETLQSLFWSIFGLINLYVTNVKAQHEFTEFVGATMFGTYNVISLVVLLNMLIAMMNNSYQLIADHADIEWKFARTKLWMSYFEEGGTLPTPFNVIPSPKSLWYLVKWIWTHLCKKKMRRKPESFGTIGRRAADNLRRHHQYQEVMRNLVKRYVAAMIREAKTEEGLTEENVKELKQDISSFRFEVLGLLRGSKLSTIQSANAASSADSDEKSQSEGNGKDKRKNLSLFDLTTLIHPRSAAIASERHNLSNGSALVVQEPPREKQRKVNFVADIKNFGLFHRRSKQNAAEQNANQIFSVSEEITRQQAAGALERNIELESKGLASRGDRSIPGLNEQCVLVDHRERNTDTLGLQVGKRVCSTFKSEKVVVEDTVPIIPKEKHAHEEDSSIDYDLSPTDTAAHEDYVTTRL
# [10] = target: Delta-type opioid receptor (Homo sapiens, UniProt P41143); assay: Counterscreen for agonists of heterodimerization of the mu 1 (OPRM1) and delta 1 (OPRD1) opioid receptors: Luminescence-based cell-based high throughput dose response assay to identify agonists of OPRD1 homodimerization. [Related pubchem assays (depositor defined):AID504326, AID504355, AID504692, AID504904, AID504905]; format: functional
# [11] = target: Mu-type opioid receptor (Homo sapiens, UniProt P35372); assay: Counterscreen for agonists of heterodimerization of the mu 1 (OPRM1) and delta 1 (OPRD1) opioid receptors: Luminescence-based cell-based high throughput dose response assay to identify agonists of OPRM1 homodimerization.; format: functional;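 note: U2OS cells expressing OPRM1 and beta-arrestin as split beta-galactosidase partners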
# [12] = target: 5-hydroxytryptamine receptor 5A (Homo sapiens, UniProt P47898); assay: Counterscreen for agonists of OPRM1-OPRD1 heterodimerization: luminescence-based cell-based high throughput dose response assay to identify agonists of 5-hydroxytryptamine (serotonin) 5A receptor (HTR5A). [Related pubchem assays (depositor defined):AID504326, AID504355, AID504692, AID504904, AID504905]; format: functional
# [13] = target: Intestinal-type alkaline phosphatase (Mus musculus, UniProt P24822); assay: PubChem AID 488785; format: functional
# [14] = target: T4, Alkaline phosphatase, tissue-nonspecific isozyme (Homo sapiens, UniProt P05186); assay: TNAP enzyme inhibition by screening hits, dose response, selectivity assay for mouse IAP inhibitor project, biochemical, human TNAP, uHTS hits (AID 488906); format: functional
# T4 sequence (P05186 whole entry): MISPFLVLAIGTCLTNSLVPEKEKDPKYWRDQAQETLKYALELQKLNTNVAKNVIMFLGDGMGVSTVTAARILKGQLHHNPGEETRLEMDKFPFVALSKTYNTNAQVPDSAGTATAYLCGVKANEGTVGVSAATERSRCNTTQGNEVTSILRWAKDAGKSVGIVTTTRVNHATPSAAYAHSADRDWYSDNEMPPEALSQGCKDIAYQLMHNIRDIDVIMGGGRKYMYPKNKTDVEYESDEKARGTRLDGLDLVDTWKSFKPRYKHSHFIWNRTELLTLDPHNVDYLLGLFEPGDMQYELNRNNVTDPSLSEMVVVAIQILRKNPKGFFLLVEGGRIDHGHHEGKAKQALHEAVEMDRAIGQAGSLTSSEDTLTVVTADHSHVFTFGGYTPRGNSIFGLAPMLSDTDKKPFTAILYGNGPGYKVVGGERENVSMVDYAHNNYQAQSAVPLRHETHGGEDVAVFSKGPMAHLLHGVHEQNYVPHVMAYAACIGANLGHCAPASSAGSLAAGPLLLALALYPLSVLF
# [15] = target: Intestinal-type alkaline phosphatase (Homo sapiens, UniProt P09923); assay: inhibition of human intestinal alkaline phosphatase – biochemical, dose response (AID 488876); format: functional
# [16] = target: Cytochrome P450 2C9 (Homo sapiens, UniProt P11712)
# [17] = target: T5, Bcl-2-related protein A1 (Mus musculus, UniProt Q07440); format: functional;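 note: confirmatory dose–response counterscreen on Bfl-1, used to check hits from a UBC13 polyubiquitin inhibitor campaign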
# T5 sequence (Q07440 whole entry): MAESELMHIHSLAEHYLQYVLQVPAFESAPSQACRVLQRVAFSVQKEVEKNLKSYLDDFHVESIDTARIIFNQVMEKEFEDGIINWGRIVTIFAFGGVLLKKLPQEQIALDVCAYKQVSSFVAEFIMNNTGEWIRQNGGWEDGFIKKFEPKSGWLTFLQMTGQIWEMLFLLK
# [18] = target: T6, Ubiquitin-conjugating enzyme E2 N (Homo sapiens, UniProt P61088); format: functional
# T6 sequence (P61088 whole entry): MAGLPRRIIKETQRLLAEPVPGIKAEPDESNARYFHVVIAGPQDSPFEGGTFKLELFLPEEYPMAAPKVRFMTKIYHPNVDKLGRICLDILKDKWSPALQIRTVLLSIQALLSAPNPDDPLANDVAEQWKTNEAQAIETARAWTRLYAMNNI
# [19] = target: T6, Ubiquitin-conjugating enzyme E2 N; format: functional; remark: listed apart in the source
# [20] = target: Nonstructural protein 1 (Influenza A virus, UniProt Q194T2); format: functional, Influenza A virus (A/California/07/2009(H1N1))
# [21] = target: T7, DNA repair protein RAD52 homolog (Homo sapiens, UniProt P43351); format: functional, biochemical
# T7 sequence (P43351 whole entry): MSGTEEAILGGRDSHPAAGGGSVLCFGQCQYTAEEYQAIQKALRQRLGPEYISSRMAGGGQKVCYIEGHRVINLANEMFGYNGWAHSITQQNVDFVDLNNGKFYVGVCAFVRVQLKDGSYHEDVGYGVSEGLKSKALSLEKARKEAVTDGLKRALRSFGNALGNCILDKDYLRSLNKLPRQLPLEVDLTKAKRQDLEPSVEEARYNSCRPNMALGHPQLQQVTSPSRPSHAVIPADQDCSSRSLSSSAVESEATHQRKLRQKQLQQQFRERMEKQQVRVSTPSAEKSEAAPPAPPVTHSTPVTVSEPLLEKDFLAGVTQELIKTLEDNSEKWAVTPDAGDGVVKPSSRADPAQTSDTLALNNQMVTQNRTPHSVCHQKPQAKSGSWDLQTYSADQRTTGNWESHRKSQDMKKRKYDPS
# [22] = target: Paired box protein Pax-8 (Homo sapiens, UniProt Q06710); assay: PAX8 transcriptional activity inhibition in RMG-I – RMG-I cells, luciferase, cherry-pick, dose response (AID 687027); format: functional, cell-based;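 note: luciferase reporter driven by Pax8 target thyroperoxidase promoter measured by SteadyGlo luminescence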
# [23] = test system: HEK293; assay: HEK293T cell viability loss, resazurin readout – resazurin fluorescence, cytotoxicity control for NF-kB activator project, SAR follow-up (AID 493251); format: functional, cell-based; settings: Homo sapiens
# [24] = target: Cytochrome P450 2D6 (Homo sapiens, UniProt P10635);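 note: CYP2D6 member of a cytochrome P450 panel assay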
# [25] = test system: Vero; assay: viability of Vero cells under compound – cytotoxicity control for flavivirus capping enzyme inhibitors (AID 588742); format: functional; settings: Chlorocebus sabaeus
# Chain of 5-hydroxytryptamine receptor 5A (P47898 whole entry): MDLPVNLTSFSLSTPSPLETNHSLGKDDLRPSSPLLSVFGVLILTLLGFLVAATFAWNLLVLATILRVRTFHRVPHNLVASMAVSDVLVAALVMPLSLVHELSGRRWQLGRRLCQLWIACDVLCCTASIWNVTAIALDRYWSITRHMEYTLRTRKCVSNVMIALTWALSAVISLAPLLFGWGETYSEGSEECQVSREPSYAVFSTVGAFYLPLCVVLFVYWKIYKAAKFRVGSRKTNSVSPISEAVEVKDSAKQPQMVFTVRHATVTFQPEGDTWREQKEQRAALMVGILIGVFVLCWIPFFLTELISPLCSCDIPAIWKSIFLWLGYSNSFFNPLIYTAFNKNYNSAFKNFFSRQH
# Chain of Delta-type opioid receptor (P41143 whole entry): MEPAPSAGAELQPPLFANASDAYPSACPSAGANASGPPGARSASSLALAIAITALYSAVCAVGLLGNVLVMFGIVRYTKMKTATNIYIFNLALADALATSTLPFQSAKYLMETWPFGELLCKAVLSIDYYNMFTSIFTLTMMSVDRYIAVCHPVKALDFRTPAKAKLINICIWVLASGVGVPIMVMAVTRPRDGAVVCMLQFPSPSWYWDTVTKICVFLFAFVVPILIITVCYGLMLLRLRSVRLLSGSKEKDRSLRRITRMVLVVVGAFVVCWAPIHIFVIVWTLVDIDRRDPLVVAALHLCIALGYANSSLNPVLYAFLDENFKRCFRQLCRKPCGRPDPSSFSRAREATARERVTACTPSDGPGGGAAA
# Chain of Cytochrome P450 2C9 (P11712 whole entry): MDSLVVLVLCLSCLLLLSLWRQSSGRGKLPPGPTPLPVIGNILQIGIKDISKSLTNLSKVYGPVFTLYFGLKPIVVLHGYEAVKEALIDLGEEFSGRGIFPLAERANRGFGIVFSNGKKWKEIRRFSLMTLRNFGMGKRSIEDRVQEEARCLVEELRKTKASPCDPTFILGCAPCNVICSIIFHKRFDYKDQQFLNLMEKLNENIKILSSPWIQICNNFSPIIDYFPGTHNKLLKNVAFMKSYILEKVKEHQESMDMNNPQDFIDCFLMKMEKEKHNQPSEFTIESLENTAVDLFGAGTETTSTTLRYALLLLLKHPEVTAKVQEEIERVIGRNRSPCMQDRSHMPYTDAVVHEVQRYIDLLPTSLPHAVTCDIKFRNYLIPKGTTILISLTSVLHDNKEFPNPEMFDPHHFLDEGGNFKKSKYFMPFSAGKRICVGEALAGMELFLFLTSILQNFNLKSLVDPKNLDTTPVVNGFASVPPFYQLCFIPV
# Chain of Mu-type opioid receptor (P35372 whole entry): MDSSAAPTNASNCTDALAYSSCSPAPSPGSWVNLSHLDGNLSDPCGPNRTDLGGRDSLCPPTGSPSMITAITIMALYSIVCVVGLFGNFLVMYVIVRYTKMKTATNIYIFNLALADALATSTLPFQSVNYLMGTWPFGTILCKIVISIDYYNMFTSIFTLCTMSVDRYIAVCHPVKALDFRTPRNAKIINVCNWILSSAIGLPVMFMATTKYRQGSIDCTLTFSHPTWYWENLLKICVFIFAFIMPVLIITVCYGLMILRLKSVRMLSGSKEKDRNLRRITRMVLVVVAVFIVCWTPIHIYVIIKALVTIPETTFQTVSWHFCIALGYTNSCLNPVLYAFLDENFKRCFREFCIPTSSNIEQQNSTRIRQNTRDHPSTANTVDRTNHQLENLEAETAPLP
# Chain of Intestinal-type alkaline phosphatase (Mus musculus, UniProt P24822) (P24822 whole entry): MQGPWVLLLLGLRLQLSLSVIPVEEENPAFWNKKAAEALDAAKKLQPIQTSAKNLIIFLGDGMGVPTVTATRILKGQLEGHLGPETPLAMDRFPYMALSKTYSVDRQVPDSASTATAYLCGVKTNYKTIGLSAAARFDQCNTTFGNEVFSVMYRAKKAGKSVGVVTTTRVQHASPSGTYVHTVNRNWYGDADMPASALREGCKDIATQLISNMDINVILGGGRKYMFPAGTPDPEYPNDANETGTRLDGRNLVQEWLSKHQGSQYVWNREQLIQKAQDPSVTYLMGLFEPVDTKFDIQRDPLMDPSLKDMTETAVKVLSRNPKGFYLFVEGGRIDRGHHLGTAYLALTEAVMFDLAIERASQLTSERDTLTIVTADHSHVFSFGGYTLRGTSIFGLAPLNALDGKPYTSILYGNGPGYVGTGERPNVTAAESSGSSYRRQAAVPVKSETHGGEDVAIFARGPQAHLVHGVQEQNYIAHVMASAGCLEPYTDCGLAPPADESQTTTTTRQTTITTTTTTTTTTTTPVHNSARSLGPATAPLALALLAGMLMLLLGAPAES
# Chain of Intestinal-type alkaline phosphatase (Homo sapiens, UniProt P09923) (P09923 whole entry): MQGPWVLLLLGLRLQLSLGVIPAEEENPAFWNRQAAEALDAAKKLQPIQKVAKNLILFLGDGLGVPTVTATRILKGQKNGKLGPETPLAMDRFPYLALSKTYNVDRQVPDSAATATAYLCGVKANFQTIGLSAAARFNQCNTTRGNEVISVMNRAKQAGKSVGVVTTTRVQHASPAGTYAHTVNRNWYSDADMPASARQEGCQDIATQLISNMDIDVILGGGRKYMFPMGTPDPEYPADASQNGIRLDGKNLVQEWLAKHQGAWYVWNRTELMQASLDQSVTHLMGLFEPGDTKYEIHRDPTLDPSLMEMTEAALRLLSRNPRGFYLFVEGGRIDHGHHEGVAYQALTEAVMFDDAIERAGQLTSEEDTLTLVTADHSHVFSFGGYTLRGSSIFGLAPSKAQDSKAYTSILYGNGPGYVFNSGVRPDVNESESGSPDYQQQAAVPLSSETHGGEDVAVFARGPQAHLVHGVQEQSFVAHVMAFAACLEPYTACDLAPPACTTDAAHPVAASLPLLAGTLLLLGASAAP
# Chain of Cyclin-dependent kinase 19 (Q9BWU1 whole entry): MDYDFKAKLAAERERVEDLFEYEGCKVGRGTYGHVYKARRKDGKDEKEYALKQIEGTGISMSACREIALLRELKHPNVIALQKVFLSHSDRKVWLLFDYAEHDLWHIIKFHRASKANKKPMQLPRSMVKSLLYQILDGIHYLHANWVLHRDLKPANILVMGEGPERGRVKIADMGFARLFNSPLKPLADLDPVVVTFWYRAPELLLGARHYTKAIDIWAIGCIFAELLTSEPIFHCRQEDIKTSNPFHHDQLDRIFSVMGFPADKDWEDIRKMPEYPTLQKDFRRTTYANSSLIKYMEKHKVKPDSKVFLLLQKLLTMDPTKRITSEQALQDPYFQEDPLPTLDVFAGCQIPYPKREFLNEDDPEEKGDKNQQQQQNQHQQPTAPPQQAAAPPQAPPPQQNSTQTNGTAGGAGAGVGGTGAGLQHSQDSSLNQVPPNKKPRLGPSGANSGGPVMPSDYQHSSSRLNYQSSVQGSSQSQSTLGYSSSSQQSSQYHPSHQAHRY
# Chain of Nonstructural protein 1 (Q194T2 whole entry): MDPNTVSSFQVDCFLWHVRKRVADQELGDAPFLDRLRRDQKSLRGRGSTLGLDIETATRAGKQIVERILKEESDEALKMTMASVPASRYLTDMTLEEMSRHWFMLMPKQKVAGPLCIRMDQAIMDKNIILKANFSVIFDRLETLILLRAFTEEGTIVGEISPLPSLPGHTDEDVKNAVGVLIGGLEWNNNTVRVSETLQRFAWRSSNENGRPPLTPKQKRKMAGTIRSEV
# Chain of Cytochrome P450 2D6 (P10635 whole entry): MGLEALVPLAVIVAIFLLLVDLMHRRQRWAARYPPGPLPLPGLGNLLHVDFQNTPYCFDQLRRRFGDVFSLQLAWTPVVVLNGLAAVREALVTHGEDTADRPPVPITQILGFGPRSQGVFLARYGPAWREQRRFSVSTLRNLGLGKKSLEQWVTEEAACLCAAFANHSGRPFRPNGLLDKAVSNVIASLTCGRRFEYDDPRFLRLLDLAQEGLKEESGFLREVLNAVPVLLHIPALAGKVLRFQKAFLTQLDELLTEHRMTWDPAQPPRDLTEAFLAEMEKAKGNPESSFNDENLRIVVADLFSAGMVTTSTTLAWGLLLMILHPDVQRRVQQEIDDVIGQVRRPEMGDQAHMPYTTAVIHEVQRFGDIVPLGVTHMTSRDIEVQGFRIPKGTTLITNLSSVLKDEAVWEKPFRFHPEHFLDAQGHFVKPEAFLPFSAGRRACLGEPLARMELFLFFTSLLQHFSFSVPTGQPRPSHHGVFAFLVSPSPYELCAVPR
# Chain of Paired box protein Pax-8 (Q06710 whole entry): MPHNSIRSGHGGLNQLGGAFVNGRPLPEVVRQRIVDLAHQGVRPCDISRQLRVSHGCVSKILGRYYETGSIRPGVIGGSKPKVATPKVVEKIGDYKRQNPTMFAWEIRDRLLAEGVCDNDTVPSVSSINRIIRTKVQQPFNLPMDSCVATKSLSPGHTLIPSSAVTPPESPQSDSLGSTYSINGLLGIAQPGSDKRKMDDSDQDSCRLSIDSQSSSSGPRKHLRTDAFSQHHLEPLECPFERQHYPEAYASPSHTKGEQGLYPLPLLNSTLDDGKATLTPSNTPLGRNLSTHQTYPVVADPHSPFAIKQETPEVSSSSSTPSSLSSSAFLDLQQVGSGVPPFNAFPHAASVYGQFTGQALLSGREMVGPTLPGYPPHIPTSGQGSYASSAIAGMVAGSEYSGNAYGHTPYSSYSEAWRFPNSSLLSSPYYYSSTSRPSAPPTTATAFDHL
structure (smiles),measurement,setting,value
C[C@H]1c2cccc(O)c2C(=O)C2C(=O)C3(O)C(=O)C(C(N)=O)C(=O)[C@@H](N(C)C)[C@@H]3[C@@H](O)[C@@H]21 (stereo not given in full),AC50,[1],12.3 µM (active)
same,AC50,[2],0.882 µM (active)
CCOC(=O)C1=C(C)N(CC(C)C)C(=O)/C1=C\c1cccs1,EC50,[3],> 99 µM (inactive)
same,EC50,[4],> 99 µM (inactive)
O=C(Nc1ccc(S(=O)(=O)NCC2CCCO2)cc1)c1ccc(Cl)cc1[N+](=O)[O-] (stereo not given),IC50,[5],7.39 µM (active)
same,IC50,[6],4.47 µM (active)
CCOc1ccc(-c2nc3ccccn3c2-c2ccnc(Nc3cccc(CCN(C)C)c3)n2)cc1,Ki,[7],0.316 µM (active)
same,Ki,[8],6.31 µM (active)
COc1ccc2c(Cl)c(-c3nnc(SCC(=O)c4ccccc4)n3C)sc2c1,EC50,[9],0.668 µM (active)
same,EC50,[10],26.5 µM (inactive)
same,EC50,[11],10.3 µM (inactive)
same,EC50,[12],> 92.5 µM (inactive)
O=C1/C(=C/c2ccc3c(c2)OCO3)SC(=S)N1CCC(=O)N(CCO)c1ccccc1,EC50,[3],> 99 µM (inactive)
same,EC50,[4],90.4 µM (inactive)
O=C1NN(c2cccc(Br)c2)C(=O)/C1=C/c1ccc(-c2cc([N+](=O)[O-])ccc2O)o1,IC50,[13],4.7 µM (active)
same,IC50,[14],> 100 µM (inactive)
same,IC50,[15],> 100 µM (inactive)
CC1CCCC(NC(=O)c2ccc(C/N=c3\c(N4CCCC4)c(O)c3=O)cc2)C1C (stereo not given),IC50,[5],0.851 µM (active)
same,IC50,[6],0.501 µM (active)
Cc1cc(C)c(NC(=O)NC(=O)c2ccc(F)cc2)c(C)n1,AC50,[16],inconclusive
N#Cc1c(SCC(=O)Nc2nc3ccccc3s2)sc2c(O)cc(O)nc12,IC50,[13],18.8 µM (active)
same,IC50,[14],> 100 µM (inactive)
same,IC50,[15],> 100 µM (inactive)
CN(C)CCCNC(=O)c1ccc(-c2cc(O)c3ncccc3c2)cc1,IC50,[17],7.49 µM (active)
same,IC50,[18],3.89 µM (active)
same,IC50,[19],3.15 µM (active)
same,IC50,[20],4.25 µM (active)
same,AC50,[21],0.849 µM (active)
CCN1CCN(c2ccc([N+](=O)[O-])c(Sc3nc4ccccc4[nH]3)c2)CC1,EC50,[10],4.1 µM (active)
same,EC50,[11],> 92.5 µM (inactive)
same,EC50,[12],> 92.5 µM (inactive)
COc1ccccc1/N=C/c1c(C)c(C#N)c2nc3ccccc3n2c1O,EC50,[3],> 99 µM (inactive)
same,EC50,[4],> 99 µM (inactive)
O=C(CSc1nnc2sc3ccccc3n12)NCc1ccco1,AC50,[16],inconclusive
CC(C)n1ncc2c(C(=O)N3CCN(Cc4ccc(Br)s4)CC3)cc(C3CC3)nc21,AC50,[2],76 µM (active)
CN1C2C=C(N(CCc3ccccc3)C(=O)c3ccc(Cl)cc3)CC1CC2 (stereo not given),EC50,[9],0.531 µM (active)
same,EC50,[10],> 92.5 µM (inactive)
same,EC50,[11],67.3 µM (inactive)
same,EC50,[12],> 92.5 µM (inactive)
CC(C)=CCC/C(C)=C/CNC(=O)C[C@H]1C[C@H](C(=O)N2CCOCC2)[C@@]2(C)c3[nH]c4ccc(Cl)cc4c3CCN2C1=O,AC50,[22],11.8 µM (active)
same,AC50,[2],112 µM (active)
CCNC(=O)CCc1nc(-c2ccc(OCC)cc2)no1,IC50,[23],> 80 µM (inactive)
COc1ccc(CNc2ccnc(-c3cccc(NS(C)(=O)=O)c3)n2)c(OC)c1,AC50,[24],12.6 µM (inconclusive)
same,AC50,[16],inconclusive
Cc1ccc(-c2cc(C(=O)NCc3ccco3)c3ccccc3n2)s1,CC50,[25],> 40 µM (active)
